This series is described as follows: in vitro. The class given is in vitro ADME. Particulars: human liver microsomes, 0.5 mg/mL microsomal protein, 1 mM NADPH, 37° C., N=1; for half-life: both sexes. Here is the method: The liver microsomes stability of compounds of Examples 1, 4 and 5 were compared with Teneligliptin.
The metabolic stability of compounds of the invention was tested using pooled liver microsomes prepared from mixed-gender humans, with 1 mM NADPH. The samples were analyzed using an LTQ-Orbitrap XL mass spectrometer. HRMS was used to determine the peak area response ratio (peak area corresponding to test compound or control divided by that of an analytical internal standard) without running a standard curve. HRMS scan was performed in an appropriate m/z range in order to detect all plausible metabolites.
The assay was run with a single incubation (N=1). Incubated test compounds at 37° C. in a buffer solution containing 0.5 mg/mL microsomal protein. Initiated the reaction by adding cofactors, sampling at 0, 10, 20, 30, and 60 minutes. Incubated positive control (5 μM testosterone) in parallel and sampling at 0, 5 10, and 30 minutes.
The control compound testosterone was run in parallel to verify the enzymatic activity of the microsomes. After the final time point, fluorimetry was used to confirm the addition of NADPH to the reaction mixture. T1/2 of control met the internal acceptance criteria.
Column: Thermo BDS Hypersil C18 30×2.0 mm, 3 μm, with guard column M.P. Buffer: 25 mM ammonium formate buffer, pH 3.5 Aqueous Reservoir (A): 90% water, 10% buffer Organic Reservoir (B): 90% acetonitrile, 10% buffer

Four molecules from US20130310396A1, “THIAZOLIDINE DERIVATIVES AND THEIR THERAPEUTIC USE” (priority 2011, published 2013) can be followed below.

The term half-life denotes the time needed for the level to fall by half in the phase considered. Read a high half-life as slow decline. As for `[2H]C1([2H])CSC([2H])([2H])N1C(=O)C1CC(N2CCN(c3cc(C)nn3-c3ccccc3)CC2)CN1` [Example 1, ((2S,4S)-4-(4-(3-Methyl-1-phenyl-1H-pyrazol-5-yl)piperazin-1-yl)pyrrolidin-2-yl)(2,2,4,4-D4-thiazolidin-3-yl)methanone], the half-life was over 1 h, the “Percentage Remaining 0 min” value stood at 100%, the “Percentage Remaining 10 min” value is listed as 92% and the “Percentage Remaining 20 min” value stood at 85%. The “Percentage Remaining 30 min” value stood at 70% and the “Percentage Remaining 60 min” value came to 60%.

As to `[2H]c1ccc(-n2nc(C)cc2N2CCN([C@@H]3CN[C@H](C(=O)N4CCSC4)C3)CC2)cc1` [Example 4, ((2S,4S)-4-(4-(1-(4-D-Phenyl)-3-methyl-1H-pyrazol-5-yl)piperazin-1-yl)pyrrolidin-2-yl)(thiazolidin-3-yl)methanone], the half-life was over 1 h, the “Percentage Remaining 0 min” value is on record as 100%, the “Percentage Remaining 10 min” value worked out at 95% and the “Percentage Remaining 20 min” value is given as 87%. Moreover, the “Percentage Remaining 30 min” value was determined as 75% and the “Percentage Remaining 60 min” value was determined as 65%.

Regarding `[2H][C@@]1(N2CCN(c3cc(C)nn3-c3ccccc3)CC2)CN[C@H](C(=O)N2CCSC2)C1` [Example 5], the half-life is over 1 h, the “Percentage Remaining 0 min” value came out at 100%, the “Percentage Remaining 10 min” value is 90% and the “Percentage Remaining 20 min” value is on record as 87%. The “Percentage Remaining 30 min” value is 70% and the “Percentage Remaining 60 min” value is 60%.

Consider `Cc1cc(N2CCN([C@@H]3CN[C@H](C(=O)N4CCSC4)C3)CC2)n(-c2ccccc2)n1` [Teneligliptin, ((2S,4S)-4-(4-(3-methyl-1-phenyl-1H-pyrazol-5-yl)piperazin-1-yl)pyrrolidin-2-yl)(thiazolidin-3-yl)methanone, reference compound], for which the half-life is over 1 h, the “Percentage Remaining 0 min” value amounted to 100%, the “Percentage Remaining 10 min” value was determined as 90% and the “Percentage Remaining 20 min” value came to 85%. For the same molecule, the “Percentage Remaining 30 min” value is given as 65% and the “Percentage Remaining 60 min” value is recorded as 55%.
